Several values for one entry are separate records, joined by “and”; a condition that tells them apart may be missing. Equal values may be shown once. A value given as a limit tells only on which side of the number the result lay.

The test system of the assay is Mycobacterium tuberculosis growth in 7H9 media. The assay is described as follows: M. tuberculosis growth inhibition in 7H9, dose response, 7H9 media, purified and synthesized samples, set 3 (AID 504646). The note with it: for IC90: 90% growth inhibition concentration.

Broadly, the IC50 is the concentration needed to halve the response being measured. The IC90 is the point of the concentration-response curve where the effect stands at 90%. Read a low IC90 as greater potency. Consider `CCOC(=O)COn1c2c(c3c4no[n+]([O-])c4ccc31)CCCC2`, for which the IC50 is 1960 nM and the IC90 stood at 3170 nM.
For the compound `CCOC(=O)CSc1ncnc2c1cnn2-c1ccc(Cl)cc1`, the IC50 is 4320 nM and the 90% effect concentration (IC90) is > 25000 nM.
With `COc1ccc(N2CCN(C(=O)c3ccc(CNc4c(N5CCOCC5)c(=O)c4=O)cc3)CC2)cc1`, the 50% inhibitory concentration (IC50) is 2160 nM and the IC90 was > 25000 nM.
In the case of `O=C(c1ccc(CNc2c(N3CCCC3)c(=O)c2=O)cc1)N1CCc2ccccc2C1`, the IC50 is 3620 nM and the 90% effect concentration (IC90) worked out at 5790 nM.
For `CC(=O)c1ccc(NC(=O)c2ccc(CNc3c(N4CCOCC4)c(=O)c3=O)cc2)cc1` the same measures were 12400 nM and > 25000 nM.
Take `Cc1cccc(N2CCN(C(=O)c3ccc(CNc4c(N5CCC(C)CC5)c(=O)c4=O)cc3)CC2)c1C`: the IC50 is 24500 nM and the concentration for an effect of 90% (IC90) was > 25000 nM.
For `Nc1c(C(=O)NC2CCCCC2)nsc1C(=O)OCC(=O)NC1CCCCC1` the same measures were 1110 nM and 2460 nM.
Take `CCc1ccc(/C=C2/C(=O)N(C)C(=S)N2CC(=O)OC)s1`: the IC50 was 1120 nM and the IC90 worked out at 4630 nM.
For the compound `COC(=O)C(C)Oc1ccc(Cc2ncc(C(F)(F)F)cc2Cl)cc1` (stereo unspecified), the IC50 was 2660 nM and the IC90 amounted to 4350 nM.
With `COc1cc(NC(=O)C/C(C)=N/NC(=O)c2ccccn2)c(OC)cc1Cl`, the concentration for half-maximal inhibition (IC50) was 1650 nM and the IC90 turned out to be 4490 nM.
As for `CC(C)NC(=O)c1sc(=S)n2c1[nH]c(=O)c1ccc(C(=O)NCCc3ccc(Cl)cc3)cc12`, the IC50 was 110 nM and the IC90 is 300 nM.
On to `O=C1C(Br)=Cc2cccc3cccc1c23`, for which the IC50 was 160 nM and the IC90 stood at 790 nM.
For `CC(=NCc1ccc2c(c1)OCO2)C1=C(O)c2ccccc2C1=O` the same measures were 950 nM and > 25000 nM.
As to `O=C(c1ccc(CNc2c(N3CCCC3)c(=O)c2=O)cc1)N1CC=C(c2ccccc2)CC1`, the half-inhibitory concentration (IC50) was 2310 nM and the concentration for an effect of 90% (IC90) is > 25000 nM.
The matching figures for `Cc1ccc2c(c1)c(C1=c3ccccc3=NC1=O)c(O)n2C`: 840 nM and 3120 nM.
Consider `O=C(c1ccc(CNc2c(N3CCOCC3)c(=O)c2=O)cc1)N1CC=C(c2ccccc2)CC1`, for which the IC50 was 660 nM and the concentration for an effect of 90% (IC90) was determined as 830 nM.
Regarding `CCC(C)Nc1ccc(NC(C)CC)cc1` (stereo unspecified), the half-maximal inhibitory concentration (IC50) was 610 nM and the IC90 was 980 nM.
For `CC1CC(C)CN(C(=O)c2ccc(CNc3c(N4CCCC4)c(=O)c3=O)cc2)C1` (stereo unspecified) the same measures were 5140 nM and > 25000 nM.
Turning to `Cc1nc(SCC(=O)NC2CCCCC2)[nH]c(=O)c1C`, the IC50 was 340 nM and 1860 nM; the IC90 is 830 nM and 3170 nM.
As for `CCOC(=O)CSc1ncnc2c1nnn2-c1ccc(F)cc1`, the IC50 is 2460 nM and the IC90 is 4350 nM.
`CC(C)CCNC(=O)CSc1nc2ccccc2c(=O)[nH]1`: the 50% inhibitory concentration (IC50) was 1190 nM and the concentration for an effect of 90% (IC90) is 2350 nM.
As for `c1ccc(/N=C2\N=C(Nc3ccccn3)c3ccccc32)nc1`, the IC50 is 160 nM and the concentration for an effect of 90% (IC90) is 250 nM.
`CCOC(=O)COc1ccc(/C=C2\NC(=S)N(CC)C2=O)cc1`: the IC50 is 1940 nM and the IC90 was 3700 nM.
On to `COC(=O)C(C)Sc1ncnc2c1nnn2-c1ccc(F)cc1` (stereo unspecified), for which the IC50 was 1880 nM and the concentration for an effect of 90% (IC90) was 4640 nM.
As to `CC[N+](C)(CC)CCCCOc1ccc2c(c1)C(=O)c1cc(OCCCC[N+](C)(CC)CC)ccc1-2`, the IC50 was 1420 nM and the IC90 is 1980 nM.
With `Cc1cccc(-c2oc3ccc(-c4ccc5c(c4)OCO5)cc3c2C#Cc2cncn2C)c1`, the 50% inhibitory concentration (IC50) was 1780 nM and the IC90 is 2690 nM.
As to `COC(=O)CSc1ncnc2c1cnn2-c1ccc(C)cc1C`, the IC50 was 4720 nM and the IC90 amounted to 7300 nM.
Regarding `CCOC(=O)C(C)Sc1ncnc2c1nnn2-c1ccc(F)cc1` (stereo unspecified), the half-maximal inhibitory concentration (IC50) was 850 nM and 3120 nM; the IC90 is 3420 nM and 8230 nM.
